From patent publication US12606568B2, “SMARCA degraders and uses thereof” (Kymera Therapeutics, Inc., priority 2020, dated 2026)

How the values were obtained:
Type in all cases: cell-based
SMARCA2 [1] = target: T1, SMARCA2 (Homo sapiens, UniProt P51531); experiment: MSD SMARCA2 degradation in A549 cell line; set-up: endogenous in cells; conditions: 24 h; for Dmax: A549, A549 cells; for DC50: A549 cells, read-out: SMARCA2 MSD A549 degradation 24 h: Average external-Abs DC50
Experimental: Example 53. MSD SMARCA2 Degradation in A549 Cell Line
Cells were seeded into 96-well plates (A549 cells: 2×10^4 cells/well/100 ul media) abd incubated overnight. The next day, 200 nl compound were added into the intermediate plate with Echo (Labcyte 550) from source plate containing a 3-fold serial dilution from top concentration of 1 mM. The culture medium was changed with 80 ul of fresh medium and 80 ul of 2× compound solution was added into the well to make a final concentration of 1000 nM, 333.3 nM, 111.1 nM, 37.04 nM, 12.35 nM, 4.115 nM, 1.372 nM, 0.457 nM, 0.152 nM and 0 nM (DMSO). The wells were mixed and then incubated for 24 hours. The media was aspirated from the cultures and 60 ul pre-chilled PIPA lysis buffer (Boston BioProducts BP-115D) with protease/phosphatase inhibitor (Roche 05892791001/Roche 04906837001) was added into the well to lyze the cells for 20 minutes at 4° C. The MSD plate (L15XA) was coated with 40 ul cell lysate and incubated at 4° C. overnight. The next day, the plate was washed three times with TBST (CST #9997S), 150 ul/well. The MSD plates was blocked with 150 ul blocking buffer per well and shaked for 1 hr at R^†, 600 rpm. The blocking buffer was 3% Blocker A (MSD, R93BA-4) in TBST. The MSD plate was washed three times with 150 ul/well of TBST and 25 ul/well of detection antibody (Rabbit anti-SMARCA2/BRM antibody, 100 μg/ml, ab223735) was added at final concentration of 1 ug/mi diluted in 1% o Blocking buffer and shaken for 1 hour at R^†, 600 rpm. The MSD plate was washed three times with 150 ul/well of TBST and 25 ul/well of SULFO-TAG anti-rabbit antibody (MSD, R32AB-1) was added at final concentration of 1 μg/ml diluted in […] Blocking buffer and shaken for 1 hour at R^†, 600 rpm. The MSD plate was washed three times with 150 ul/well of TBST and 150 ul/well of 2×MSD reading buffer diluted from 4× (MSD, R92TC-2) with water was added. Lastly, the MSD instrument was read.
(§1) The letter codes for SMARCA2 degradation potency (DC50) include: A (<100 nM), B (100-500 nM), C (501-1000 nM), and D (>1000 nM). The letter codes for the percentage of SMARCA2 degradation after 24 hours (Dmax % o) include: A (>90% o degradation), B (>70-90% o degradation), C (50-70% o degradation), and D (<50% degradation).

SMARCA2 [2] = target: T1, SMARCA2; experiment: SMARCA2 Western blot MV4-11 degradation; set-up: SMARCA2 and SMARCA4 protein degradation in MV4-11 cells; endogenous in cells; host or cells: MV4-11; conditions: 24 h; for Dmax: MV4-11, MV4-11 cells, read-out: SMARCA2 MSD MV411 degradation 24 h: average Dmax %; for DC50: MV4-11 cells, read-out: SMARCA2 MSD MV411 degradation 24 h: Mean external-Abs DC50
Experimental: (§2) Example 54. SMARCA2 and SMARCA 4 Western Blot MV4-11 Degradation
(§3) Cells were seeded into 6-well plates (MV4-11: 4×10^6 cells/well/1 ml) and 1 ml of 2× compound solution was added into the well to make the final concentration and the plates were mixed well and incubated for 24 hours (No cytotoxicity was observed). The cell were collected with media and spun at 3000 rpm for 5 minutes. The supernatant was aspirated and the well and the cells were washed with cold PBS once and combined for centrifugation again; the supernatant aspirated again. 200 ul pre-chilled RIPA lysis buffer (Boston BioProducts BP-115D) with protease/phosphatase inhibitor (Roche 05892791001/Roche 04906837001) was directly added into the tube to lyze the cells for 20 minutes on ice. The cell lysate were collected into EP tubes and spun at 13000 rpm for 20 minutes and 72 ul supernatant was transferred to a fresh EP tube containing 18 ul of 5× loading buffer (Beyotime Bio P0015) to make the loading samples. The samples were heated to 100° C. for 10 minutes and cooled to RT and microcentrifuged. 20 ul of samples were loaded onto SDS-PAGE gel (Novex, WG1402BOX) and the gel was run at 80 V for 20 minutes and 120 V for 1.5 hours. The samples were electrotransfer to a NC membrane using wet-transfer method with 250 mA for 2.5 hours. The membrane was blocked with LICOR blocking buffer (LI-COR, 927-50000) for 1 hour. The membrane was washed three times with TBST (CST #9997S), 5 minutes each. Incubation was performed with primary antibody prepared in blocking buffer with 0.1% Tween-20 (Solarbio, P8220) at 4° C. overnight (Anti-SMARCA2/BRM antibody (ab15597) 1:500; Anti-BRG1 antibody [EPR3912] (ab108318) 1:1000; Rabbit anti-Baf180 antibody [EPR15860] (Abcam, ab196022) 1:1000; mouse anti-beta-Actin (8H10D10) (CST #3700) 1:10000). The membrane was washed three times with TBST, 5 minutes each. Incubation with secondary antibody was performed for 1 hour at RT (anti-rabbit IgG (Licor, 926-32211) 1:5000; anti-mouse IgG (LI-COR, 926-68070) 1:5000). The membrane was washed three times with TBST, 5 minutes each and lastly the LiCOR was read.
as §1, with “SMARCA” for “SMARCA2”, “%)” for “% o)”, “(>90%” for “(>90% o”, “(>70-90%” for “(>70-90% o”, “(50-70%” for “(50-70% o”

SMARCA4 = target: T2, SMARCA4 (Homo sapiens, UniProt P51532); experiment: SMARCA4 Western blot MV4-11 degradation; conditions: MV4-11 cells, 24 h; read-out: SMARCA4 MSD MV411 degradation 24 h: Mean external-Abs DC50
T2 construct: SMARCA2 and SMARCA4 protein degradation in MV4-11 cells; endogenous in cells; host or cells: MV4-11
Experimental: as §2, §3
as §1, with “SMARCA” for “SMARCA2”, “%)” for “% o)”, “(>90%” for “(>90% o”, “(>70-90%” for “(>70-90% o”, “(50-70%” for “(50-70% o”

T1 sequence (P51531 whole entry): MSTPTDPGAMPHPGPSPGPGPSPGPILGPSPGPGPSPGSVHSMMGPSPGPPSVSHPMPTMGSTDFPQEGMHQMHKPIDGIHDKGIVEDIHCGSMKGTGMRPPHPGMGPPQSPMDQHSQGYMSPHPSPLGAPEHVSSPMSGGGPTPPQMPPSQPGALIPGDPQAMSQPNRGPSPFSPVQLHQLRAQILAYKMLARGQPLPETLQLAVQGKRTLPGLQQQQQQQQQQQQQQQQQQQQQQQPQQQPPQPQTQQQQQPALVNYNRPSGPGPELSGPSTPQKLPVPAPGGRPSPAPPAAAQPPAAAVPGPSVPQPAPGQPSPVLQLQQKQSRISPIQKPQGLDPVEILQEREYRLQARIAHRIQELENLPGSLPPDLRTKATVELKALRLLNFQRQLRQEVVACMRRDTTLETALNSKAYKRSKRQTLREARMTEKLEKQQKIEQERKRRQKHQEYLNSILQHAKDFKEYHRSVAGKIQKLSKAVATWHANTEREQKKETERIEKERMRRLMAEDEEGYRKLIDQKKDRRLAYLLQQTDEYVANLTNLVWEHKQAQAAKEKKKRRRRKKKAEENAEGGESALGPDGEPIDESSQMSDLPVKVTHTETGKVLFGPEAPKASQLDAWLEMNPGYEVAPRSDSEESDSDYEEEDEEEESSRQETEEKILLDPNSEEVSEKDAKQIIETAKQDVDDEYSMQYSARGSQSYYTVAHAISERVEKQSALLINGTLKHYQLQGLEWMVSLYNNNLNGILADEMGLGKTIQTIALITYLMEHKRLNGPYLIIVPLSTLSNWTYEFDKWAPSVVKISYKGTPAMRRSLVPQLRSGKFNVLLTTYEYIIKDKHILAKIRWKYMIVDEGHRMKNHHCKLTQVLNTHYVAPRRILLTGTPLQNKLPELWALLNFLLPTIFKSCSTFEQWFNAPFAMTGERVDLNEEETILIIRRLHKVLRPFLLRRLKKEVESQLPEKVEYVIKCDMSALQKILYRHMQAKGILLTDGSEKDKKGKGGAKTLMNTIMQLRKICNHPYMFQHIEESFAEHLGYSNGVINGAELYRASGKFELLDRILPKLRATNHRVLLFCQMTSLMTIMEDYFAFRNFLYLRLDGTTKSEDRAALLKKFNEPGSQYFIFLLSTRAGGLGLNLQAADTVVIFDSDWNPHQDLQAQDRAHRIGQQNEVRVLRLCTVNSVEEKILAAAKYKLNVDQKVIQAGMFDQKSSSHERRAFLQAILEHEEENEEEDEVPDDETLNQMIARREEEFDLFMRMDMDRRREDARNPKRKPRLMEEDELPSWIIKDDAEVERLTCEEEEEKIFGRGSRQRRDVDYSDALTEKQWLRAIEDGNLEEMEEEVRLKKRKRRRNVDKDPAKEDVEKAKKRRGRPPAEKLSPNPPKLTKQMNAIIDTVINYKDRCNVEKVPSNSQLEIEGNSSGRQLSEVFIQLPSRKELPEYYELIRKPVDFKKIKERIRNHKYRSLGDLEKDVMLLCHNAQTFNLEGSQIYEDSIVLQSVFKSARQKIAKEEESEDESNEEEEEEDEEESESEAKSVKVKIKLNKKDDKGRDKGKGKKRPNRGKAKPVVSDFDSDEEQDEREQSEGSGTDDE
T2 sequence (P51532 whole entry): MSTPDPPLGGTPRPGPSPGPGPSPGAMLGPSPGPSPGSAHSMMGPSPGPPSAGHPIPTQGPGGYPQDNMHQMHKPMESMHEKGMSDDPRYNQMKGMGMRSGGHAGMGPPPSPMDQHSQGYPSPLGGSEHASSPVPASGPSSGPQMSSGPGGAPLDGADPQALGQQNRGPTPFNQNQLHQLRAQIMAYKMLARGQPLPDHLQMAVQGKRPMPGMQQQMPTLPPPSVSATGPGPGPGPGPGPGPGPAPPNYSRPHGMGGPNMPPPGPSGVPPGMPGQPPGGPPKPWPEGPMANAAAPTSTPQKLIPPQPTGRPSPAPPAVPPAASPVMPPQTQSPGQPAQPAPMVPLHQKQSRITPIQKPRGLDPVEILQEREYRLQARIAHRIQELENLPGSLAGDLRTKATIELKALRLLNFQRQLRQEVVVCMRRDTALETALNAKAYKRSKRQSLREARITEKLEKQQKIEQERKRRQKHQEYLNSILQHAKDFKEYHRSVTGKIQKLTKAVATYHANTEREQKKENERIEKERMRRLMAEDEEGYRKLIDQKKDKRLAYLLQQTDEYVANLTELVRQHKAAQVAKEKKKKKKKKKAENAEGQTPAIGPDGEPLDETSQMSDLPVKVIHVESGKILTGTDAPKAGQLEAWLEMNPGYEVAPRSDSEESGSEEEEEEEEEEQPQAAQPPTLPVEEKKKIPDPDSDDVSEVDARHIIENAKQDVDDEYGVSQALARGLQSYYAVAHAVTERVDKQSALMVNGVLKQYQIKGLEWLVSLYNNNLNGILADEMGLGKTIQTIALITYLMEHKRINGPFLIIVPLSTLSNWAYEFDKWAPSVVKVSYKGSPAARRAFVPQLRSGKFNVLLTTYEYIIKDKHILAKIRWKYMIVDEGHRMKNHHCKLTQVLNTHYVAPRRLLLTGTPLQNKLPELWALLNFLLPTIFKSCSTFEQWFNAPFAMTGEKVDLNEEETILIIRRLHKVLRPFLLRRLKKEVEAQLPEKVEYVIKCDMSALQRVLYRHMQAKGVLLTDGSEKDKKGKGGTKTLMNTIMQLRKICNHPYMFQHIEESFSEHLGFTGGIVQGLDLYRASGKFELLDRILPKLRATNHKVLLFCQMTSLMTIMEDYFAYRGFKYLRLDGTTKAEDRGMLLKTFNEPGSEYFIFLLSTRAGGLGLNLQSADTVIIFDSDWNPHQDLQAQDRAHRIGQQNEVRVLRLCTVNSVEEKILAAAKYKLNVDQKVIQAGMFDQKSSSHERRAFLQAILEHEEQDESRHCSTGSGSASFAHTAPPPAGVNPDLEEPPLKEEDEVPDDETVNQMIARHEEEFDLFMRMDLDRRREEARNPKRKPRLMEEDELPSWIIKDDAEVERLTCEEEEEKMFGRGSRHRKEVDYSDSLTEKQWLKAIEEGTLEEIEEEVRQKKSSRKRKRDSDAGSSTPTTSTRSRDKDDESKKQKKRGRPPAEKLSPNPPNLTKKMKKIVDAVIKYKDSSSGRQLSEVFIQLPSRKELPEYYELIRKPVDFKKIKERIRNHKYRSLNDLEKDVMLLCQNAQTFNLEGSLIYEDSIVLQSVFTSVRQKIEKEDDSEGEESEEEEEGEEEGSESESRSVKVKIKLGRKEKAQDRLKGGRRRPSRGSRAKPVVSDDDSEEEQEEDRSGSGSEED

SMILES | Dmax (SMARCA2 [1]) [%] | DC50 (SMARCA2 [1]) [nM] | Dmax (SMARCA2 [2]) [%] | DC50 (SMARCA2 [2]) [nM] | DC50 (SMARCA4) [nM]
Cc1ncsc1-c1ccc(CNC(=O)[C@@H]2C[C@@H](O)CN2C(=O)C(c2cc(N3CCC(CCCN4CCC(c5cnc(N6C7CCC6CN(c6cc(-c8ccccc8O)nnc6N)C7)nc5)CC4)CC3)no2)C(C)C)cc1 (stereo partly drawn) [I-64] | > 90 | < 100 | > 90 | < 100 | 
Cc1ncsc1-c1ccc(CNC(=O)[C@@H]2C[C@@H](O)CN2C(=O)C(c2cc([C@H]3CC[C@@H](N4CCC(c5cnc(N6C7CCC6CN(c6cc(-c8ccccc8O)nnc6N)C7)nc5)CC4)CC3)no2)C(C)C)cc1 (stereo partly drawn) [I-19, (2S,4R)-1-(2-(3-(4-(4-(2-(3-(3-amino-6-(2-hydroxyphenyl)pyridazin-4-yl)-3,8-diazabicyclo[3.2.1]octan-8-yl)pyrimidin-5-yl)piperidin-1-yl)cyclohexyl)isoxazol-5-yl)-3-methylbutanoyl)-4-hydroxy-N-(4-(4-methylthiazol-5-yl)benzyl)pyrrolidine-2-carboxamide] | > 90 | < 100 | > 90 | < 100 | 
Cc1ncsc1-c1cnc(CNC(=O)[C@@H]2C[C@@H](O)CN2C(=O)[C@@H](NC(=O)[C@H]2CC3(C2)C[C@H](N2CCC(c4ccc(N5C6CCC5CN(c5cc(-c7ccccc7O)nnc5N)C6)cc4)CC2)C3)C(C)(C)C)cn1 (stereo partly drawn) [I-30, (2S,4R)-1-((2S)-2-(6-(4-(4-(3-(3-amino-6-(2-hydroxyphenyl)pyridazin-4-yl)-3,8-diazabicyclo[3.2.1]octan-8-yl)phenyl)piperidin-1-yl)spiro[3.3]heptane-2-carboxamido)-3,3-dimethylbutanoyl)-4-hydroxy-N-((5-(4-methylthiazol-5-yl)pyrazin-2-yl)methyl)pyrrolidine-2-carboxamide] |  | > 1000 |  |  | > 1000
Cc1ncsc1-c1cnc(CNC(=O)[C@@H]2C[C@@H](O)CN2C(=O)[C@@H](NC(=O)[C@H]2CC3(C2)C[C@H](N2CCC(c4ccc(N5C6CCC5CN(c5cc(-c7ccccc7O)nnc5N)C6)cc4)CC2)C3)C(C)(C)C)nc1 (stereo partly drawn) [I-26, (2S,4R)-1-((2S)-2-(6-(4-(4-(3-(3-amino-6-(2-hydroxyphenyl)pyridazin-4-yl)-3,8-diazabicyclo [3.2.1]octan-8-yl)phenyl)piperidin-1-yl)spiro[3.3]heptane-2-carboxamido)-3,3-dimethylbutanoyl)-4-hydroxy-N-((5-(4-methylthiazol-5-yl)pyrimidin-2-yl)methyl)pyrrolidine-2-carboxamide] |  | > 1000 |  |  | > 1000
Cc1ncsc1-c1ccc(CNC(=O)[C@@H]2C[C@@H](O)CN2C(=O)C(c2cc([C@H]3CC[C@H](N4CCC(c5cnc(N6C7CCC6CN(c6cc(-c8ccccc8O)nnc6N)C7)nc5)CC4)CC3)no2)C(C)C)cc1 (stereo partly drawn) [I-20, (2S,4R)-1-(2-(3-(4-(4-(2-(3-(3-amino-6-(2-hydroxyphenyl)pyridazin-4-yl)-3,8-diazabicyclo[3.2.1]octan-8-yl)pyrimidin-5-yl)piperidin-1-yl)cyclohexyl)isoxazol-5-yl)-3-methylbutanoyl)-4-hydroxy-N-(4-(4-methylthiazol-5-yl)benzyl)pyrrolidine-2-carboxamide] | > 90 | < 100 |  |  | 
Cc1ncsc1-c1ccc(CNC(=O)[C@@H]2C[C@@H](O)CN2C(=O)C(c2cc(O[C@H]3CC[C@@H](N4CCC(c5cnc(N6C7CCC6CN(c6cc(-c8ccccc8O)nnc6N)C7)nc5)CC4)CC3)no2)C(C)C)cc1 (stereo partly drawn) [I-18, (2S,4R)-1-(2-(3-(((1s,4R)-4-(4-(2-(3-(3-amino-6-(2-hydroxyphenyl)pyridazin-4-yl)-3,8-diazabicyclo[3.2.1]octan-8-yl)pyrimidin-5-yl)piperidin-1-yl)cyclohexyl)oxy)isoxazol-5-yl)-3-methylbutanoyl)-4-hydroxy-N-(4-(4-methylthiazol-5-yl)benzyl)pyrrolidine-2-carboxamide] | > 90 | < 100 | > 90 | < 100 | 
Cc1ncsc1-c1ccc(CNC(=O)[C@@H]2C[C@@H](O)CN2C(=O)C(c2cc(O[C@H]3CC[C@H](N4CCC(c5cnc(N6C7CCC6CN(c6cc(-c8ccccc8O)nnc6N)C7)nc5)CC4)CC3)no2)C(C)C)cc1 (stereo partly drawn) [I-17, (2S,4R)-1-(2-(3-(((1r,4S)-4-(4-(2-(3-(3-amino-6-(2-hydroxyphenyl)pyridazin-4-yl)-3,8-diazabicyclo[3.2.1]octan-8-yl)pyrimidin-5-yl)piperidin-1-yl)cyclohexyl)oxy)isoxazol-5-yl)-3-methylbutanoyl)-4-hydroxy-N-(4-(4-methylthiazol-5-yl)benzyl)pyrrolidine-2-carboxamide] | > 90 | < 100 | > 90 | < 100 | 
Cc1nccn1-c1ccc(CNC(=O)[C@@H]2C[C@@H](O)CN2C(=O)[C@@H](NC(=O)[C@H]2CC3(C2)C[C@H](N2CCC(c4cnc(N5C6CCC5CN(c5cc(-c7ccccc7O)nnc5N)C6)nc4)CC2)C3)C(C)(C)C)cc1 (stereo partly drawn) [I-34, (2S,4R)-1-((2S)-2-(6-(4-(2-(3-(3-amino-6-(2-hydroxyphenyl)pyridazin-4-yl)-3,8-diazabicyclo[3.2.1]octan-8-yl)pyrimidin-5-yl)piperidin-1-yl)spiro[3.3]heptane-2-carboxamido)-3,3-dimethylbutanoyl)-4-hydroxy-N-(4-(2-methyl-1H-imidazol-1-yl)benzyl-)pyrrolidine-2-carboxamide] |  |  |  | 100 to 500 | > 1000
